From ChEMBL document CHEMBL1201862, “PubChem BioAssay data set” (2004) come the findings set out here.

Activity calls are given as the source filed them.

The nature of assay [1]: viability loss in HEK293 cells – cell-based, plate reader, cherry-picked samples, cytotoxicity control, dose response (AID 743446). The class given is functional.
Assay [2] in a line: blockers of bursicon-stimulated LGR2 cAMP reporter – cell-based, HEK293, CRE-luciferase reporter, cherry pick, set 2, dose response (AID 743343).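 Further: transfected cells were stimulated with diluted bursicon conditioned medium after compound addition.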 Format: functional. For orientation: A reporter such as luciferase makes a cellular process visible.
Assay [3] can be described thus: Luminescence Cell-Based Dose Retest to Confirm Inhibitors of Cancer Stem Cells. [Related pubchem assays (depositor defined):AID2717, AID2721]. Format: functional. To be noted: Homo sapiens.
The nature of assay [4]: A549 cell cytotoxicity, dose response, cytotoxicity control, plate reader, cherry-pick, antagonist series (AID 743412). Format: functional, cell-based.
Assay [5] is described as follows: toxicity toward HepG2 liver cells – cell-based, plate reader, cherry-pick, antagonist series, cytotoxicity control, dose response (AID 743416). Format: functional.
The nature of assay [6]: blockade of melanocortin 4 receptor signaling – cell-based, plate reader, cherry pick, counter-screen for LGR2 antagonist project, dose response (AID 743444).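 Further: transfected HEK 293 cells stimulated with alpha-MSH peptide; potency of inhibitors of the alpha-MSH evoked signal.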 The class given is functional. In general terms: Counterscreens check selectivity or assay interference.
In assay [7] the target is Beta-2 adrenergic receptor (Homo sapiens, UniProt P07550). Briefly: ADRB2 activation measured by internalization – cell-based, FAP fluorogen, flow cytometry, cherry pick 1, dose response (AID 588763). The class given is functional.
Assay [8] can be described thus: viability loss in HEK293T cells – cell-based, cherry-picks, cytotoxicity control for HIV Vif inhibitor project, dose response (AID 652208). The class given is functional.
The next assay concerns HeLa. The experiment in a line: viability loss in HeLa cells – cell-based, ATP luminescence, cherry-pick samples, cytotoxicity control, dose response (AID 687004). The class given is functional. The following applies: Homo sapiens.
The target in a further assay is T1, Coagulation factor XII (Homo sapiens, UniProt P00748).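 Further: activated factor XIIa alpha cleaving a fluorogenic AMC peptide substrate; inhibitor potency from loss of enzyme activity.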
T1 sequence (P00748 whole entry): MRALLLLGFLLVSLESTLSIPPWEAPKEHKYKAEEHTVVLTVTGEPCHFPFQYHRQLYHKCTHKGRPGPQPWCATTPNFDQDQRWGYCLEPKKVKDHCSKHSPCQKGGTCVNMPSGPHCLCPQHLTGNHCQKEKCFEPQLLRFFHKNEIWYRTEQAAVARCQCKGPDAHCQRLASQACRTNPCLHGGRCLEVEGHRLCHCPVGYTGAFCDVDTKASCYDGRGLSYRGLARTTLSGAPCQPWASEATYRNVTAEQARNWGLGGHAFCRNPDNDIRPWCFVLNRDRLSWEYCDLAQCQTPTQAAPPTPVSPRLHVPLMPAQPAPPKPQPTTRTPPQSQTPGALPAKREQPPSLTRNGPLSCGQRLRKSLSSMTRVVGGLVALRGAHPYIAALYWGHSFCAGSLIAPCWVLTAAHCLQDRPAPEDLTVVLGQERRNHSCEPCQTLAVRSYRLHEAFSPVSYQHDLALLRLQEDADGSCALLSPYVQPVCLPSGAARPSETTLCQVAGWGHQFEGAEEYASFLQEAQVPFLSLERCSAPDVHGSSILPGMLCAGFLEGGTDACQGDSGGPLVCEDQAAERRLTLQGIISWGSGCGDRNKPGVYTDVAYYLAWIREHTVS
The class given is functional.

Another assay is described as follows: cells. The following applies: HEK-CNG. Format: functional, cell-based.
The target in assay [9] is T2, COUP transcription factor 2 (Homo sapiens, UniProt P24468).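 Further: HEK293 cells transiently cotransfected with COUP-TFII expression vector and reporter; luciferase reporter luminescence driven by COUP-TFII from the pX2-168 reporter plasmid.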
T2 sequence (P24468 whole entry): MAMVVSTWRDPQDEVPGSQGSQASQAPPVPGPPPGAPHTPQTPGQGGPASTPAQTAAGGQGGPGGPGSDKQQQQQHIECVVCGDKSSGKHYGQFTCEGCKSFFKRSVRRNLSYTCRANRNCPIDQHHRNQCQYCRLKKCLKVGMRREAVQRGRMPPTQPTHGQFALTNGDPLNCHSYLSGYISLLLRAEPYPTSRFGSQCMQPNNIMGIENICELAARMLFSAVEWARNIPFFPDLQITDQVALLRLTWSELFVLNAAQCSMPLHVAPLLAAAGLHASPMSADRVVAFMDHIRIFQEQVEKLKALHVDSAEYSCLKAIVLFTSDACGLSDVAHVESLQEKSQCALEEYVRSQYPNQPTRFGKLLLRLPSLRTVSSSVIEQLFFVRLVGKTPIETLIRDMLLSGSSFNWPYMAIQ
Briefly: Luminescence-based cell-based high throughput dose response assay to identify inhibitors of COUP-TFII (NR2F2). The class given is functional.

Another assay addresses Galanin receptor type 3 (Homo sapiens, UniProt O60755). Briefly: Fluorescence-based cell-based primary high throughput dose response assay to identify antagonists of the Galanin Receptor 3 (GalR3). The class given is functional.
The next assay deals with Protein S100-A4 (Homo sapiens, UniProt P26447). The experiment in a line: human S100A4 peptide interaction inhibition curves – biochemical, fluorescence polarization, cherry-picked hits, dose response (AID 687001). The class given is functional. (In general: In fluorescence polarisation assays a small probe gives low polarisation when free and higher when bound to something large.)

The target in assay [10] is T3, Sentrin-specific protease 8 (Homo sapiens, UniProt Q96LD8).
T3 sequence (Q96LD8 whole entry): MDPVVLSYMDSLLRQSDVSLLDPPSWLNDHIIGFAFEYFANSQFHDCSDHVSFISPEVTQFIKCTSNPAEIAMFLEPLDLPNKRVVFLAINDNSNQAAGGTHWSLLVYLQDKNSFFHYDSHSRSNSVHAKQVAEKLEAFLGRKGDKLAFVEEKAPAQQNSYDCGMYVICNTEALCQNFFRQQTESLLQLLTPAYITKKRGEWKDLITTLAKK
Format: functional.

The target of the next assay is T4, Caspase-3 (Homo sapiens, UniProt P42574).
T4 sequence (P42574 whole entry): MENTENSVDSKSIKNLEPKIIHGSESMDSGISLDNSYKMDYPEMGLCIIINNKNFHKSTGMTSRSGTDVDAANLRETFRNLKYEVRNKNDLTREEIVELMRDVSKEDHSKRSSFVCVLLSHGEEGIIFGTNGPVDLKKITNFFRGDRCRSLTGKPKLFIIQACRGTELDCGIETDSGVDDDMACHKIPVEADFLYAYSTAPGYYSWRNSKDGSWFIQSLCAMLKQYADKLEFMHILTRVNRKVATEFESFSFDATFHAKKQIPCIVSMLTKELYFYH
The experiment in a line: Dose-response confirmation of uHTS inhibitor hits of Sentrin-Specific Protease 8 in a Caspase-3 Fluorescence assay. Format: functional.

Assay [11] has as its target T5, Replicative DNA helicase DnaB (Mycobacterium tuberculosis, UniProt P9WMR3).
T5 sequence (P9WMR3 whole entry): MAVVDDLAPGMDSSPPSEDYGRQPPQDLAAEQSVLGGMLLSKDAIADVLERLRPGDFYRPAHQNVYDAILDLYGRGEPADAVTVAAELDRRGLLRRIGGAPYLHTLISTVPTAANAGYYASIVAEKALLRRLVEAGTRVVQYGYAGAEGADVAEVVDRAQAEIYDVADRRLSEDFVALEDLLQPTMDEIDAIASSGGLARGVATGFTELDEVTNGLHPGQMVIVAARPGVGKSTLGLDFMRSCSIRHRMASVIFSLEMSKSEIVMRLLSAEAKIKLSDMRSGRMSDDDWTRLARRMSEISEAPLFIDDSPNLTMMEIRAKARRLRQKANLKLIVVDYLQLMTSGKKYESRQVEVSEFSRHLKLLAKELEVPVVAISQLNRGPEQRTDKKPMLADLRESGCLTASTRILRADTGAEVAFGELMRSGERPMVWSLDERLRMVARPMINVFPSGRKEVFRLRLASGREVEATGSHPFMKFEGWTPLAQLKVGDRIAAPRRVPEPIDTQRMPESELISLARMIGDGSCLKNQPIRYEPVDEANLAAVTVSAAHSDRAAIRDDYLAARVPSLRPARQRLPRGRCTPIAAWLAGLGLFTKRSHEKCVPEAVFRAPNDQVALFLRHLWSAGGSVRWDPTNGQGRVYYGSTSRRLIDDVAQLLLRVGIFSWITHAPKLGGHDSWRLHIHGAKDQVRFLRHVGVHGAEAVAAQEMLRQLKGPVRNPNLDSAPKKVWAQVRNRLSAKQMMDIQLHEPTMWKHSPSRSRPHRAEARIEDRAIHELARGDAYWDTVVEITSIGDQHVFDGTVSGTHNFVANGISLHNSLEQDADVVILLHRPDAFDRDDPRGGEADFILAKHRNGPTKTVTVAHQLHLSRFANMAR
Briefly: DnaB intein splicing inhibitors, dose response, biochemical, cell-free fluorescence (AID 449749). Format: functional.

For assay [12], the target named is T3, Sentrin-specific protease 8. The class given is functional. The source holds these as a separate data set.
A further assay deals with T6, Protein RecA (Mycobacterium tuberculosis, UniProt P9WHJ3).
T6 sequence (P9WHJ3 whole entry): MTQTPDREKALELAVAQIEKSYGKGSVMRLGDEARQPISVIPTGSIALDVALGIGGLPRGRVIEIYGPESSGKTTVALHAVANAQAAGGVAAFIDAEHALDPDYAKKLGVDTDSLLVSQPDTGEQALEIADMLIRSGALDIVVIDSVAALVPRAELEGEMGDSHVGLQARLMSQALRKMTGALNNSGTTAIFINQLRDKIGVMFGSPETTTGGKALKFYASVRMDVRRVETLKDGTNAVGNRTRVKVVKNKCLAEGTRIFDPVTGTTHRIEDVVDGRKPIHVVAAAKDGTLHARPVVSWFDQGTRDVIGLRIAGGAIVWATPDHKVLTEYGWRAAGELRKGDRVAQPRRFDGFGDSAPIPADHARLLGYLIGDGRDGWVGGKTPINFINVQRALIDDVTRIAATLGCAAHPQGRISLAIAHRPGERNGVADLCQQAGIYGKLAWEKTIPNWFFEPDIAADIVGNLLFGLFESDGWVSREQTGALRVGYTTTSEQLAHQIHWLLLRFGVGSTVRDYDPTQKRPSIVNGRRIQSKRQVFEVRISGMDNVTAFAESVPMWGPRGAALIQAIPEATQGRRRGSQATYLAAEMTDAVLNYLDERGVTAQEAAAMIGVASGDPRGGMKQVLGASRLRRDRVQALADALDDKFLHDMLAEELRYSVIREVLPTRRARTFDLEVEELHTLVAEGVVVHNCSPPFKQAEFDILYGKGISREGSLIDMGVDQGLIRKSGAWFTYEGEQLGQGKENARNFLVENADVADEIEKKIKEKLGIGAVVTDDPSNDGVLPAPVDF
The experiment in a line: Fluorescence Cell-Free Homogeneous Dose Retest to Identify Inhibitors of RecA-Intein Splicing Activity. [Related pubchem assays (depositor defined):AID2097, AID2223, AID489010, AID492950]. The class given is functional.

For a further assay, the system named is Vero. Briefly: viability of Vero cells under compound – cytotoxicity control for flavivirus capping enzyme inhibitors (AID 588742). Format: functional. To be noted: Chlorocebus sabaeus.

Chain of Galanin receptor type 3 (O60755 whole entry): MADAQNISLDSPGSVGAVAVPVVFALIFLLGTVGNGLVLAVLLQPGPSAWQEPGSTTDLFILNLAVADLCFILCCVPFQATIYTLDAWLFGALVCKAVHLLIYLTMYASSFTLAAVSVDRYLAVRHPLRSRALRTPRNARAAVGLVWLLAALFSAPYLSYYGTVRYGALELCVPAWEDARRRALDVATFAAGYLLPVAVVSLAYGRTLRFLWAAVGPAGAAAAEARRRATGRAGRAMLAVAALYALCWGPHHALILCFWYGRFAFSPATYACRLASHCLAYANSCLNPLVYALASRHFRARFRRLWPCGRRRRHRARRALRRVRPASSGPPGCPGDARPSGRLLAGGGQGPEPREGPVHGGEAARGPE
Chain of Protein S100-A4 (P26447 whole entry): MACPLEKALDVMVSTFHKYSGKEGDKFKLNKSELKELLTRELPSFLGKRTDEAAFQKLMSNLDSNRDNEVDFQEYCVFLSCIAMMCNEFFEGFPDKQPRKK
Chain of Beta-2 adrenergic receptor (P07550 whole entry): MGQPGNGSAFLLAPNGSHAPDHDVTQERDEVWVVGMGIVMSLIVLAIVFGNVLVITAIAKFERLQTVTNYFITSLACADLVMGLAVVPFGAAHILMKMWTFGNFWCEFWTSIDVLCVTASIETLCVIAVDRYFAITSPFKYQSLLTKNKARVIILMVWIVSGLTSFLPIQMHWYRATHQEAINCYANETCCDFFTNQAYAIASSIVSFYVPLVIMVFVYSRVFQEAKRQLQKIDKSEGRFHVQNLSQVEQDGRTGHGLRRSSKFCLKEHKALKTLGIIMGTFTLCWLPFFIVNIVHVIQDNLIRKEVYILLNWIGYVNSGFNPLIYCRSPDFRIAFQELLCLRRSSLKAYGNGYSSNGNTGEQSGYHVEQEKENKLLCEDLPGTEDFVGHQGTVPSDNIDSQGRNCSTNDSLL

On to `Cn1nnnc1Sc1ncnc2scc(-c3ccc(Cl)cc3)c12`, for which the AC50 in assay [1] was 13.9 µM (active); in assay [2] it was 14.3 µM (active); in [3] it was 3.48 µM (active); in [4], 7.88 µM (active); in assay [5] it was 12.1 µM (active); in assay [6], 23.2 µM (active). Further, the AC50 in [8] is 11.8 µM (active). For the same compound, in [7], the EC50 was 8.38 µM (active).

Take `Cc1ccc(CSc2ncnc3c2cnn3-c2ccc(C)cc2)cc1`: the AC50 in the assay with HeLa was 48.5 µM (active). Further, at Coagulation factor XII, the IC50 was > 50 µM (inactive).

Consider `Cc1c(Cl)cccc1NC(=O)N1CCCN(c2nc(-c3ccccc3)ns2)CC1`, for which the EC50 in “cells” was > 29.9 µM (inactive). The IC50 in assay [9] is 13.4 µM (inactive); at Galanin receptor type 3, 1.53 µM (active).

Regarding `CN(C)c1ccc(C=Cc2nccc3ccccc23)cc1`, the AC50 at Protein S100-A4 is 0.774 µM (active).

Regarding `COc1ccc(/C=N/NC(=O)c2nn(-c3ccc(Cl)cc3)c(=O)c3c(N)scc23)cc1`, the IC50 in assay [10] was 2.03 µM (active); on Caspase-3, 11.9 µM (active); in assay [12] it was 0.967 µM (active). Moreover, in assay [11], the AC50 is > 380 µM (inactive). The EC50 on Protein RecA is 4.62 µM (active). For the same compound, in the assay on Vero, the CC50 is 22 µM (active).

In general, AC50 refers to the concentration at which the activity in the assay is half-maximal. For orientation: EC50 means the concentration that produces a half-maximal response. Usually IC50 stands for the midpoint of a concentration-inhibition curve. As usually defined, the CC50 is the concentration giving 50% cytotoxicity.
